# Data taken from patent US12714718B2, “Treatment of 22Q11.2 deletion syndrome with cannabidiol” (priority 2018, dated 2026).
# Columns and labels:
# [1] = tested on: children and adolescents with 22q11.2 Deletion Syndrome; assay: Aberrant Behavior Checklist-Community (ABC-C), open-label ZYN002 study; format: in vivo, human; settings: Week 6 and Week 14
# Excerpt: Aberrant Behavior Checklist-Community (ABC-C): The Aberrant Behavior Checklist-Community, 2nd Edition, was completed by the parent/caregiver, with support from the site staff. The ABC-C asks responders to rate behaviors from “0—not at all a problem” to “3—the problem is severe in degree” across 58 questions.
# Each application consisted of one sachet of ZYN002 CBD 4.2% concentration, containing 2.98 g of gel. […]
# [2] = tested on: children and adolescents with 22q11.2 Deletion Syndrome; assay: Anxiety, Depression, and Mood Scale (ADAMS), open-label ZYN002 study; format: in vivo, human; settings: Week 6 and Week 14
# Experimental: (§1) Methodology: This was an open-label study to assess the safety, tolerability and efficacy of CBD administered as ZYN002, a transdermal gel, for the treatment of child and adolescent patients with 22q11.2 deletion syndrome. Male and female patients with 22q11.2 deletion syndrome were treated in Period 1 for 14 weeks with 250 mg and 500 mg of CBD (patients ≤35 kg received 250 mg CBD daily; patients >35 kg received 500 mg CBD daily). For patients with less than a 25% improvement from baseline in the ABC-C irritability subscale, the investigator could increase the total daily dose at Week 6 of treatment. Twenty male and female patients, ages 6 to <18 years, received ZYN002.
# Anxiety, Depression, and Mood Scale (ADAMS): The Anxiety, Depression, and Mood Scale was completed by the parent/caregiver, with support from the site staff. The ADAMS was used as a comprehensive assessment of anxiety, depression, and mood among the patients. […]
# (§2) Statistical Methods: Descriptive statistics (mean, median, standard deviation, minimum, and maximum) for continuous data and number (n) and percentage (%) for categorical data were determined for all efficacy and safety parameters.
# [3] = tested on: children and adolescents with 22q11.2 Deletion Syndrome; assay: Clinical Global Impression-Improvement (CGI-I), open-label ZYN002 study; format: in vivo, human
# Experimental: as §1
# Clinical Global Impressions Scale-Improvement: The Clinical Global Impression Scale, Improvement (CGI-I), is commonly used in clinical trials as they allow the clinician to utilize the history from the caregiver and incorporate the score into a clinical rating for the severity of symptoms. CGI-I is a 7-point scale that is used to assess how much the patient's behavioral symptoms associated with 22q11.2 deletion syndrome have improved, or worsened, relative to a baseline assessment at the beginning of the treatment.
# Each application consisted of one sachet of ZYN002 CBD 4.2% concentration, containing 2.98 g of gel. At Week 6, if the patient had less than a 25% improvement from baseline in the ABC-C irritability subscale, the investigator increased the dose as follows: • Patients who weigh ≤35 kg receiving a total daily dose of 250 mg CBD had their daily dose increased to 500 mg. Each application consisted of two sachets of ZYN002 CBD 4.2% concentration, containing 2.98 g of gel. • Patients >35 kg received 250 mg CBD applied Q12H (±2 hours); total daily dose of 500 mg CBD. […]
# as §2
# [4] = tested on: children and adolescents with 22q11.2 Deletion Syndrome; assay: Pediatric Anxiety Rating Scale (PARS), open-label ZYN002 study; format: in vivo, human; settings: Week 14
# Experimental: as §1
# Pediatric Anxiety Rating Scale (PARS): The PARS is a clinician-rated caregiver interview that covers 61 behaviors related to anxiety (Riddle M A, et al, The Pediatric Anxiety Rating Scale (PARS) Development and Psychometric Properties, J. Am. Acad. Child Adolesc. Psychiatry, 2002, 4(9):1061-1069). The PARS provides broad coverage of separation anxiety, social phobia, and generalized anxiety. […] The interviewer assesses the severity by quantifying the frequency and degree of interference and avoidance in family, school and community settings. Each of seven severity items is scored on a scale of 1 to 5, with 5 being the most severe and frequent. […]
# [5] = tested on: children and adolescents with 22q11.2 Deletion Syndrome; assay: Safety and tolerability monitoring, open-label ZYN002 study; format: in vivo, human; settings: up to 14 weeks
# Experimental: as §1
# Safety Monitoring: Patient safety was monitored at each study visit using standard measures, including physical and neurological exams, examination of skin at application sites for irritation, vital signs, 12-lead ECGs, the C-SSRS, safety laboratory tests, and AE monitoring.
# Each application consisted of one sachet of ZYN002 CBD 4.2% concentration, containing 2.98 g of gel. At Week 6, if the patient had less than a 25% improvement from baseline in the ABC-C irritability subscale, the investigator increased the dose as follows: • Patients who weigh ≤35 kg receiving a total daily dose of 250 mg CBD had their daily dose increased to 500 mg. […]
# [6] = cited from earlier work
# [7] = tested on: adults with social phobia; settings: crossover trial; cited from earlier work
# [8] = tested on: children and adults; settings: in vivo; cited from earlier work
compound,measurement,setting,value
"C=C(C)C1CCC(C)=CC1c1c(O)cc(CCCCC)cc1O (stereo not shown) [CBD, 2-[3-methyl-6-(1-methylethenyl)-2-cyclohexen-1-yl]-5-pentyl-1,3-benzenediol]","ABC-C all five subscales vs baseline, in words",[1],statistically and clinically meaningful improvements
same,"ADAMS total score and all five subscales vs baseline, in words",[2],statistically significant improvements
same,patients being much improved or very much improved (CGI-I),[3],62.5%
same,"patients rated by clinicians as improved, much-improved or very much improved (CGI-I)",[3],Seventy-five
same,"CGI-I, majority of patients, in words",[3]; Week 6 and Week 14,clinically meaningful improvements
same,"PARS vs baseline, in words",[4],statistically significant improvements
same,tolerability of transdermal administration,[5],well tolerated
same,"solubility in water, in words",[6],virtually insoluble in water
same,physiological and cognitive indicators of anxiety,[7],significant and clinically meaningful reductions
same,tolerability in children and adults,[8],generally well tolerated
